Earlier results as cited in US11033578B2, “Nutritional supplement for growth enhancement” (Nutritional Growth Solutions LTD, priority 2013, dated 2021).

Key:
children = details: meta analysis; 95% CI: 0.46, 2.51
[1] = tested on: initially stunted infants; details: daily syrup for six months; vs placebo

In the case of `[Fe]` [iron], the “increase in hemoglobin concentrations, effect size” value (children) is given as 1.49.

In the case of zinc [zinc-alone], the “mean height for age Z-score” value [1] is listed as “decreased to a greater extent than placebo”.
